The data set can be described thus: recombinant UMI read abundance after kanamycin selection (control-corrected) (log10(CPM+1)); higher = more efficient recombination; extreme values may be limits of the assay; sequences stand for … in AGTGCAGAGAAAATCGGCCAGTTTTCTCTGCCTGCAGTCCGCATGCCGTGGGACCCCTTGGGTTCTAACCTGTTGCCTAGATTTATGCAGCGGACTGCCTTTCTCCCAAAGTGATAAACCGG…AGGTTGGTTTCACT; site = the 11-nt donor. The procedure, abridged: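 The measure is log10(CPM+1) for recombinant UMIs. These were PCR-amplified across the donor–target junction and sequenced after Escherichia coli carrying a donor and donor-binding-loop pair library and a target plasmid with T7-inducible IS621 bridge recombinase was plated on IPTG (0.07 mM) plus kanamycin or unselected. CPM were averaged over two replicates and scaled by control-derived factors.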
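Note: IS621 bridge recombinase in Escherichia coli cells against a fixed T5 target plasmid.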

As to “AGCCTTTCATGGACCGGTTTTCCCGGTAATCCGTATTTGAC (site AGCCTTGCTGT)”, the “recombinant UMI read abundance (log10)” value is 0.

Regarding “AGCCTTTCATGGACCGGTTTTCCCGGTAATCCGTATTTGAC (site AGCCTTTCTAT)”, the “recombinant UMI read abundance (log10)” value amounted to 0.

On to “AGCCTTTCATGGACCGGTTTTCCCGGTAATCCGTATTTGAC (site AGCCTTTCTCT)”, for which the “recombinant UMI read abundance (log10)” value stood at 0.00414.

As to “AGCCTTTCATGGACCGGTTTTCCCGGTAATCCGTATTTGAC (site AGCCTTTCTGA)”, the “recombinant UMI read abundance (log10)” value worked out at 0.

Turning to “AGCCTTTCATGGACCGGTTTTCCCGGTAATCCGTATTTGAC (site AGCCTTTCTGC)”, the “recombinant UMI read abundance (log10)” value is 0.

With “AGCCTTTCATGGACCGGTTTTCCCGGTAATCCGTATTTGAC (site AGCCTTTCTGG)”, the “recombinant UMI read abundance (log10)” value is 0.

For “AGCCTTTCATGGACCGGTTTTCCCGGTAATCCGTATTTGAC (site AGCCTTTCTGT)”, the “recombinant UMI read abundance (log10)” value was found to be 0.

In the case of “AGCCTTTCATGGACCGGTTTTCCCGGTAATCCGTATTTGAC (site AGCCTTTCTTT)”, the “recombinant UMI read abundance (log10)” value is 0.

Consider “AGCCTTTCATGGACCGGTTTTCCCGGTAATCCGTATTTGAC (site AGCGTTTCTGT)”, for which the “recombinant UMI read abundance (log10)” value came to 0.

In the case of “AGCCTTTCATGGACCGGTTTTCCCGGTAATCCGTATTTGAC (site AGCTTTTCTGT)”, the “recombinant UMI read abundance (log10)” value was 0.

Regarding “AGCCTTTCATGGACCGGTTTTCCCGGTAATCCGTATTTGAC (site AGGCTTTCTGT)”, the “recombinant UMI read abundance (log10)” value was 0.

Take “AGCCTTTCATGGACCGGTTTTCCCGGTAATCCGTATTTGAC (site AGTCTTTCTGT)”: the “recombinant UMI read abundance (log10)” value was found to be 0.

For the sequence “AGCCTTTCATGGACCGGTTTTCCCGGTAATCCGTATTTGAC (site ATCCTTTCTGT)”, the “recombinant UMI read abundance (log10)” value is 0.

On to “AGCCTTTCATGGACCGGTTTTCCCGGTAATCCGTATTTGAC (site CGCCTTTCTGT)”, for which the “recombinant UMI read abundance (log10)” value came out at 0.

With “AGCCTTTCATGGACCGGTTTTCCCGGTAATCCGTATTTGAC (site GGCCTTTCTGT)”, the “recombinant UMI read abundance (log10)” value turned out to be 0.

For the sequence “AGCCTTTCATGGACCGGTTTTCCCGGTAATCCGTATTTGAC (site TGCCTTTCTGT)”, the “recombinant UMI read abundance (log10)” value was 0.

For “AGCCTTTCATGGACCGGTTTTCCCGGTAATCCGTATTTGCC (site AGCCTTTCTGA)”, the “recombinant UMI read abundance (log10)” value amounted to 0.

With “AGCCTTTCATGGACCGGTTTTCCCGGTAATCCGTATTTGCC (site AGCCTTTCTGC)”, the “recombinant UMI read abundance (log10)” value was 0.

On to “AGCCTTTCATGGACCGGTTTTCCCGGTAATCCGTATTTGCC (site AGCCTTTCTGG)”, for which the “recombinant UMI read abundance (log10)” value amounted to 1.05.

On to “AGCCTTTCATGGACCGGTTTTCCCGGTAATCCGTATTTGCC (site AGCCTTTCTGT)”, for which the “recombinant UMI read abundance (log10)” value was 0.

As to “AGCGCAGCATGGACCGGTTTTCCCGGTAATCCGTATTTGCG (site AGCGCAGCTCG)”, the “recombinant UMI read abundance (log10)” value came out at 1.01.

For the sequence “AGCGCAGCATGGACCGGTTTTCCCGGTAATCCGTATTTGGG (site AGCACAGCTCC)”, the “recombinant UMI read abundance (log10)” value came to 0.

“AGCGCAGCATGGACCGGTTTTCCCGGTAATCCGTATTTGGG (site AGCCCAGCTCC)”: the “recombinant UMI read abundance (log10)” value was determined as 0.0111.

As for “AGCGCAGCATGGACCGGTTTTCCCGGTAATCCGTATTTGGG (site AGCGCAGCTCC)”, the “recombinant UMI read abundance (log10)” value came to 0.0103.

Consider “AGCGCAGCATGGACCGGTTTTCCCGGTAATCCGTATTTGGG (site AGCTCAGCTCC)”, for which the “recombinant UMI read abundance (log10)” value was 0.0119.

Regarding “AGCGCGACATGGACCGGTTTTCCCGGTAATCCGTATTTGAG (site AGCGCGACTCT)”, the “recombinant UMI read abundance (log10)” value turned out to be 1.27.

With “AGCGGTCCATGGACCGGTTTTCCCGGTAATCCGTATTTGAC (site AGCGGTCCTGT)”, the “recombinant UMI read abundance (log10)” value was found to be 0.

“AGCTAACCATGGACCGGTTTTCCCGGTAATCCGTATTTGAA (site AGCTAACCTTT)”: the “recombinant UMI read abundance (log10)” value is 0.00558.

Regarding “AGCTAACCATGGACCGGTTTTCCCGGTAATCCGTATTTGTG (site AGCTAACCTCA)”, the “recombinant UMI read abundance (log10)” value was 0.00444.

On to “AGCTACGCATGGACCGGTTTTCCCGGTAATCCGTATTTGGG (site AGCTACGCTCC)”, for which the “recombinant UMI read abundance (log10)” value came to 0.0157.

On to “AGCTATGCATGGACCGGTTTTCCCGGTAATCCGTATTTGAT (site AGCTATGCTAT)”, for which the “recombinant UMI read abundance (log10)” value came to 1.79.

As to “AGCTCGGCATGGACCGGTTTTCCCGGTAATCCGTATTTGGG (site AGCTCAGCTCC)”, the “recombinant UMI read abundance (log10)” value stood at 0.0161.

On to “AGCTCGGCATGGACCGGTTTTCCCGGTAATCCGTATTTGGG (site AGCTCCGCTCC)”, for which the “recombinant UMI read abundance (log10)” value was 0.0225.

With “AGCTCGGCATGGACCGGTTTTCCCGGTAATCCGTATTTGGG (site AGCTCGGCTCC)”, the “recombinant UMI read abundance (log10)” value turned out to be 0.

The record behind these values is the supplement of paper PMC11208160.
